Where two headings read alike, the source gives them in different places.
Assays:
Type in all cases: cell-based
[1] = system: human Glioblastoma cells U87-MG; assay: Cell viability test (Resazurin), U87-MG cells; design: evaluation of ability to inhibit cell growth activity (IC50): scale not given here; settings: for IC50: Homo sapiens, U-87 MG
Protocol: (§1) Cell viability was determined with Resazurin (at a final concentration of 25 μg/mL).

[2] = system: African green monkey kidney cells Vero; assay: Cell viability test (Resazurin), Vero cells; settings: for IC50: Chlorocebus sabaeus, Vero
Protocol: as §1

[3] = system: human breast cancer cells MDA-MB-231; assay: Cell viability test (Resazurin), MDA-MB-231 cells; design: evaluation of ability to inhibit cell growth activity (IC50): scale not given here; settings: for IC50: Homo sapiens
Protocol: as §1

[4] = system: human breast cancer cells MDA-MB-468; assay: Cell viability test (Resazurin), MDA-MB-468 cells; settings: for IC50: Homo sapiens
Protocol: as §1

[5] = system: human colorectal cancer cells SW-480; assay: Cell viability test (Resazurin), SW480 cells; design: evaluation of ability to inhibit cell growth activity (IC50): scale not given here; settings: for IC50: Homo sapiens
Protocol: as §1

[6] = system: human lung cancer cells A549; assay: Cell viability test (Resazurin), A549 cells; design: evaluation of ability to inhibit cell growth activity (IC50): scale not given here; settings: for IC50: Homo sapiens
Protocol: as §1

[7] = system: human leukemia cells U937; assay: Cell viability test (Resazurin), U937 cells; settings: for IC50: Homo sapiens
Protocol: as §1

[8] = system: human liver cancer cells Mahlavu; assay: Cell viability test (Resazurin), Mahlavu cells; settings: for IC50: Homo sapiens, Mahlavu
Protocol: as §1

[9] = 48 h, 0.1% FCS, Resazurin, read-out: inhibitory concentrations of cell growth activity IC50
[10] = grade of the IC50 of Table 2, read-out: evaluation of ability to inhibit cell growth activity (IC50)
[11] = MDA-MB-231, 48 h, MDA-MB-231 cells, 48 hours, 0.1% FCS, Resazurin, read-out: inhibitory concentrations of cell growth activity IC50
[12] = MDA-MB-231, MDA-MB-231 cells, grade of the IC50 of Table 2, read-out: evaluation of ability to inhibit cell growth activity (IC50)
[13] = MDA-MB-468, 48 h, MDA-MB-468 cells, 48 hours, 0.1% FCS, Resazurin, read-out: inhibitory concentrations of cell growth activity IC50
[14] = MDA-MB-468, MDA-MB-468 cells, grade of the IC50 of Table 2, read-out: evaluation of ability to inhibit cell growth activity (IC50)
[15] = SW480, 48 h, SW480 cells, 48 hours, 0.1% FCS, Resazurin, read-out: inhibitory concentrations of cell growth activity IC50
[16] = SW480, SW480 cells, grade of the IC50 of Table 2, read-out: evaluation of ability to inhibit cell growth activity (IC50)
[17] = A549, 48 h, A549 cells, 48 hours, 0.1% FCS, Resazurin, read-out: inhibitory concentrations of cell growth activity IC50
[18] = A549, A549 cells, grade of the IC50 of Table 2, read-out: evaluation of ability to inhibit cell growth activity (IC50)
[19] = U-937, 48 h, U937 cells, 48 hours, 0.1% FCS, Resazurin, read-out: inhibitory concentrations of cell growth activity IC50
[20] = U-937, U937 cells, grade of the IC50 of Table 2, read-out: evaluation of ability to inhibit cell growth activity (IC50)
[21] = SW480 cells, grade of the IC50 of Table 2
[22] = A549 cells, grade of the IC50 of Table 2

Row | SMILES | IC50 [1, 9] | IC50 [1, 10] | IC50 [2, 9] | IC50 [2, 10] | IC50 [3, 11] | IC50 [3, 12] | IC50 [4, 13] | IC50 [4, 14] | IC50 [5, 15] | IC50 [5, 16] | IC50 [6, 17] | IC50 [6, 18] | IC50 [7, 19] | IC50 [7, 20] | IC50 [8, 9] | IC50 [8, 10] | evaluation of ability to inhibit cell growth activity (IC50) [5, 21] | evaluation of ability to inhibit cell growth activity (IC50) [6, 22] | other results
1 | C[C@H](C/C=C/C(C)(C)O)[C@H]1CC[C@@]2(C)[C@@H]3[C@@H](O)C=C4[C@@H](CC[C@H](O)C4(C)C)[C@]3(C=O)CC[C@]12C [Compound 1] | 150 µM | 64 to 256 µM | > 256 µM | > 256 µM | > 256 µM | > 256 µM | > 256 µM | > 256 µM | > 256 µM | > 256 µM | > 256 µM | > 256 µM | 36.6 µM | 16 to 64 µM | > 256 µM | > 256 µM |  |  | 
2 | CC(C)=C[C@H](O)C[C@@H](C)[C@H]1CC[C@@]2(C)[C@@H]3[C@@H](O)C=C4[C@@H](CC[C@H](O)C4(C)C)[C@]3(C=O)CC[C@]12C [Compound 2] | 7.52 µM | < 8 µM | 12.8 µM |  | 4.44 µM | < 8 µM | 7.25 µM | < 8 µM | 13.1 µM | 8 to 16 µM | 4.16 µM | < 8 µM | 0.05 µM | < 8 µM | 11.3 µM | 8 to 16 µM | ◯ |  | evaluation of ability to inhibit cell growth activity (IC50) ([2]; grade of the IC50 of Table 2): ◯; evaluation of ability to inhibit cell growth activity (IC50) ([8]; grade of the IC50 of Table 2): ◯
3 | CC(=O)O[C@H]1C=C2[C@@H](CC[C@H](OC(C)=O)C2(C)C)[C@]2(C=O)CC[C@]3(C)[C@@H]([C@H](C)C[C@H](C=C(C)C)OC(C)=O)CC[C@@]3(C)[C@H]12 [Compound 3] | 6.82 µM | < 8 µM | > 256 µM | > 256 µM | 5.2 µM | < 8 µM | 10.4 µM | 8 to 16 µM | 18.2 µM | 16 to 64 µM | 12.2 µM | 8 to 16 µM | 3.45 µM | < 8 µM | 23 µM | 16 to 64 µM |  | ◯ | evaluation of ability to inhibit cell growth activity (IC50) ([4]; MDA-MB-468 cells, grade of the IC50 of Table 2): ◯
4 | CC(=O)O[C@H]1C=C2[C@@H](CC[C@H](OC(C)=O)C2(C)C)[C@]2(C=O)CC[C@]3(C)[C@@H]([C@H](C)C/C=C/C(C)(C)O)CC[C@@]3(C)[C@H]12 [Compound 4] | 14.4 µM | 8 to 16 µM | 35.3 µM | 16 to 64 µM | 12.1 µM | 8 to 16 µM | 18.6 µM | 16 to 64 µM | 13 µM | 8 to 16 µM | 12.9 µM | 8 to 16 µM | 8.08 µM | 8 to 16 µM | 29.4 µM | 16 to 64 µM | ◯ | ◯ | evaluation of ability to inhibit cell growth activity (IC50) ([1]; grade of the IC50 of Table 2): ◯; evaluation of ability to inhibit cell growth activity (IC50) ([3]; MDA-MB-231 cells, grade of the IC50 of Table 2): ◯; evaluation of ability to inhibit cell growth activity (IC50) ([7]; U937 cells, grade of the IC50 of Table 2): ◯

Source: patent US10344049B2, “Substituted steroids for the treatment of cancer” (AQUAVAN TECHNOLOGY CO., LTD., priority 2017, dated 2019)
